The values that follow come from patent publication US5039689A, “Antiparasitic 3(4-amino benzotriazo-1-yl-)1,2-cyclopentanediols” (Burroughs Wellcome Co., priority 1988, dated 1991).

The test system of data set [1] is Trypanosoma brucei gambiense. In words: Activity against Trypanosoma brucei gambiense (procyclic culture, 5 days, density by Coulter Counter). It counts as cell-based, T. brucei subsp. gambiense procyclic (strain TH114). The note with it: 120 h, T. brucei gambiense procyclic TH114, medium PDM-79, 27° C., read-out: I50. The procedure: A) Activity against Trypanosoma brucei gambiense 1. T. brucei subsp. gambiense procyclic (strain TH114 from the Institut fur Schiffs und Tropenkrankheiten, Hamburg) were grown in medium PDM-79 (Fish et al; BBA714[1982]422-428) in 25 cm^2 tissue (T-25) culture flasks at 27° C. in a 5% CO^2 /air atmosphere. Drugs were dissolved in 0.1N NaOH and their concentration determined from their spectral data. Drugs were added to the PDM-79 at a volume≤1% of the total volume and the drug containing medium filter-sterilised into T-25 flasks. Flasks were inoculated to a final density of ≈10^5 /ml and incubated for 5 days at which time their density was determined by a Coulter Counter (Model ZB1). Results were expressed as % inhibition relative to the controls.

A further data set relates to Pneumocystis carinii. In words: Activity against Pneumocystis carinii (method of Pesanti). It counts as cell-based. Conditions: read-out: I50. The procedure: (B) Activity against Pneumocystis carinii
The compounds were tested according to the method of Pesanti, (J. Infect. Dis., 141(6), 775-780, 1980).

Data set [2] can be described thus: Oral toxicology test in rats. The note with it: Charles River CD rats, 4 mg/kg for 30 days. It is filed as in vivo. The procedure:
Charles River CD rats were given oral doses of the compound of Example 3 at 4 mg/kg for 30 days.

Bounds are passed on as bounds.

`Nc1ncnc2c1ncn2[C@@H]1CC[C@@H](O)[C@H]1O` (relative stereo) [Example 1C, (±)-(1R*,2S*,3R*)-3-(6-Amino-9H-purin-9-yl)-1,2-cyclopentanediol]: in data set [1], the IC50 was found to be 0.7 nM.
As for `Nc1ncnc2c1ncn2[C@H]1CC[C@@H](O)[C@H]1O` (relative stereo) [Example 2, (±)-(1R*,2S*,3S*)-3-(6-Amino-9H-purin-9-yl)-1,2-cyclopentanediol], the IC50 in data set [1] is 1000 nM; in the data set on Pneumocystis carinii, under 20000 nM.
For the molecule `Nc1ncnc2c1nnn2[C@@H]1CC[C@@H](O)[C@H]1O` (relative stereo) [Example 3C, (±)-(1R*,2S*,3R*)-3-(7-Amino-3H-1,2,3-triazolo[4,5-d]pyrimidin-3-yl)-1,2-cyclopentanediol], the figures for the IC50 (in data set [1]; with Pneumocystis carinii) were 200 nM and under 20000 nM, respectively. Moreover, the “treatment-related changes with respect to clinical signs of toxicity, body weight, clinical pathology or pathology” value in data set [2] is reported as “No treatment-related changes were observed”.
Take `Nc1ncnc2c1ncn2[C@@H]1C[C@H](CCl)[C@@H](O)[C@H]1O` (relative stereo) [Example 4, (±)-(1R*,2S*,3R*,5S*)-3-(6-Amino-9H-purin-9-yl)-5-(chloromethyl)-1,2-cyclopentanediol]: the IC50 in data set [1] turned out to be 3500 nM.
Take `C[C@H]1C[C@@H](n2cnc3c(N)ncnc32)[C@H](O)[C@@H]1O` (relative stereo) [Example 5, (±)-(1R*,2S*,3R*,5S*)-3-(6-Amino-9H-purin-9-yl)-5-methyl-1,2-cyclopentanediol]: the IC50 in data set [1] stood at 2 nM.
As to `NC(=O)[C@@H]1C[C@H](n2cnc3c(N)ncnc32)[C@@H](O)[C@H]1O` (relative stereo) [Example 6, (±)-(1R*,2S*,3R*,4S*)-4-(6-Amino-9H-purin-9-yl)-2,3-dihydroxy-1-cyclopentanecarboxamide], the IC50 in data set [1] fell in the range of 40 to 200 nM.
